Test results from patent US20260022143A1, “Cyclic Peptide Inhibitors of IL-23” (JANSSEN PHARMACEUTICA NV, priority 2022, published 2026).
Counter-ions that a name gives are not always drawn. Starred links: 1 amine or outer side, 2 acyl side, 3 side chain; linkers in the order of their positions; H or OH if unused. Positions of bridges follow the written chain, without caps; N, C: chain ends. Non-standard residues stand in square brackets, D forms with d. Residues, ends and D or L forms follow the SMILES beside them. *: point of attachment. Me3N+(CH2)2O(CH2)2O(CH2)2CO = C[N+](C)(C)CCOCCOCCC(=O)*; Trp(7-Me) = Cc1cccc2c(C[C@H](N)C(=O)O)c[nH]c12; Abu(4-yl) = O=C([C@H](CC[*:3])N[*:1])[*:2]; dLys(Me3) = C[N+](C)(C)CCCC[C@@H](N)C(=O)O; 2Nal = N[C@@H](Cc1ccc2ccccc2c1)C(=O)O; AEF = NCCOc1ccc(C[C@H](N)C(=O)O)cc1; 3Pal = N[C@@H](Cc1cccnc1)C(=O)O; Lys(Me) = CNCCCC[C@H](N)C(=O)O; Pen = CC(C)(S)[C@H](N)C(=O)O; αMeC = C[C@](N)(CS)C(=O)O; Thp = NC1(C(=O)O)CCOCC1; X3 = C[N+](C)(C)CCCCC*; Me2NCH2CH2 = CN(C)CC*; Tfa = O=C(C(F)(F)F)*; Sar = CNCC(=O)O

Legend:
[1] = molecular target: T1, interleukin-23 (IL-23) receptor (Homo sapiens, UniProt Q5VWK5); test: PBMC pSTAT3 assay; assay type: cell-based
T1 construct: Cryopreserved peripheral blood mononuclear cells (PBMCs) from healthy donors were thawed; endogenous in cells; host or cells: cryopreserved PBMCs from healthy donors, expanded 4 days on anti-CD3 with IL-1
T1 sequence (Q5VWK5 24-629): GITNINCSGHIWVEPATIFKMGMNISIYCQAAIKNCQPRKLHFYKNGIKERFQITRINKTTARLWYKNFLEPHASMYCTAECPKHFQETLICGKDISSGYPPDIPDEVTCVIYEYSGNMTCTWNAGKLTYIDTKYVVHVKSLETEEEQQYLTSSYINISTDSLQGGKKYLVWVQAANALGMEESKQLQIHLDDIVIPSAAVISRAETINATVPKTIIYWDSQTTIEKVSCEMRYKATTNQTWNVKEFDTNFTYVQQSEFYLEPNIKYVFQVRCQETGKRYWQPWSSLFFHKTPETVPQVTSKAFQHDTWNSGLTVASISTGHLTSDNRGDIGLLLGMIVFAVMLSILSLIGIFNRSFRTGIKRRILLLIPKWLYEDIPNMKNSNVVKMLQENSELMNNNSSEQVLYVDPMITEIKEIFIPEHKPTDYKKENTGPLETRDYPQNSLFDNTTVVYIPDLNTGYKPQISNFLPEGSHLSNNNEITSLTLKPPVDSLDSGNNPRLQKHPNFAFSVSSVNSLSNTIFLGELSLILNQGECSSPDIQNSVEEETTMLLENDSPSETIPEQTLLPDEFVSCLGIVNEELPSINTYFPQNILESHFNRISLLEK
Method: Cryopreserved peripheral blood mononuclear cells (PBMCs) from healthy donors were thawed and washed twice in ImmunoCult-XF T cell expansion medium (XF-TCEM) supplemented with CTL anti-aggregate wash. The cells were counted, resuspended at 2×10^5 cells per mL XF-TCEM supplemented with penicillin/streptomycin and 100 ng/mL IL-1 (BioLegend, 579404), and cultured in tissue culture flasks coated with anti-CD3 (eBioscience, 16-0037-85 or BD Pharmingen, 555329) at 37° C. in 5% CO2. On day 4 of culture, PBMCs were collected, washed twice in RPMI-1640 supplemented with 0.1% BSA (RPMI-BSA), and incubated in RPMI-BSA in upright tissue culture flasks for 4 hours at 37° C. in 5% CO2. Following this ‘starvation,’ a total of 6×10^4 cells in […] RPMI-BSA was transferred into each well of a 384-well plate pre-spotted with peptide or DMSO. The cells were incubated for 30 minutes prior to the addition of IL-23 at a final concentration of 5 ng/mL. The cells were stimulated with cytokine for 30 minutes at 37° C. in 5% CO2, transferred onto ice for 10 minutes, and lysed. Cell lysates were stored at −80° C. until phosphorylated STAT3 was measured using the phospho-STAT panel kit (Meso Scale Discovery, K15202D).

[2] = Exposed Polar Surface Area (EPSA); assay type: physicochemical; conditions: SFC on Chirex 3014 column; sample 1 mM DMSO stock; read-out: EPSA
Summary of the method: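 SFC retention on a Chirex 3014 (S)-valine/(R)-1-(α-naphthyl)ethylamine column, 35 °C, CO2 with MeOH (20 mM ammonium formate) gradient 5–60% at 20%/min, 14 MPa outlet. Retention times converted to EPSA (Å^2) via linear calibration with 8 standards; samples from 1 mM DMSO stock, run in duplicate.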

IL-23R = molecular target: T2, IL-23R (Homo sapiens, UniProt Q5VWK5); test: IL23R Reporter Assay; assay type: cell-based; conditions: HEK293 cells containing IL-23R, IL-12RP1 and STAT-inducible firefly luciferase reporter; 10 ng/mL IL-23 (EC90); 5 h at 37° C.; read-out: IL23R Reporter Assay
T2 construct: host or cells: HEK293
T2 sequence (Q5VWK5 24-629): T1 sequence (Q5VWK5 24-629)

CC(=O)N(C)CCCC[C@@H]1NC(=O)[C@H](Cc2c[nH]c3c(C)cccc23)NC(=O)[C@H]([C@@H](C)O)NC(=O)[C@H](CC(=O)N(C)C)NC(=O)[C@@H](NC(=O)C(F)(F)F)C(C)(C)SSC(C)(C)[C@@H](C(=O)N[C@@H](Cc2ccc(OCCN)cc2)C(=O)N[C@@H](Cc2ccc3ccccc3c2)C(=O)NC2(C(=O)N[C@@H](CCCCN(C)C(C)=O)C(=O)N[C@@H](CC(N)=O)C(=O)N[C@@H](Cc3cccnc3)C(=O)N(C)CC(=O)N(C)C)CCOCC2)NC1=O [compound 68, CF3CO-Pen(3)-N(N(Me)2)-T-7MeW-K(NMeAc)-Pen(3)-AEF-2Nal-THP-K(NMeAc)-N-3Pya-Sar-CON(Me)2] (Tfa-[Pen]D(NMe2)T[Trp(7-Me)][Lys(Me)](Ac)[Pen][AEF][2Nal][Thp][Lys(Me)](Ac)N[3Pal][Sar]-NMe2; disulfide 1-6)
IC50 [1]: 12 pM | EPSA [2]: 148 A^2

CC(=O)NCCCC[C@@H]1NC(=O)[C@H](Cc2c[nH]c3c(C)cccc23)NC(=O)[C@H]([C@@H](C)O)NC(=O)[C@H](CC(N)=O)NC(=O)[C@@H](NC(=O)CCOCCOCC[N+](C)(C)C)C(C)(C)SSC(C)(C)[C@@H](C(=O)N[C@@H](Cc2ccc(OCCN)cc2)C(=O)N[C@@H](Cc2ccc3ccccc3c2)C(=O)NC2(C(=O)N[C@@H](CCC(=O)O)C(=O)N[C@@H](CC(N)=O)C(=O)N[C@@H](Cc3cccnc3)C(=O)N(C)CC(N)=O)CCOCC2)NC1=O [compound 82, cPEG3aCO-Pen(3)-N-T-7MeW-K(Ac)-Pen(3)-AEF-2Nal-THP-E-N-3Pya-Sar-CONH2] ({Me3N+(CH2)2O(CH2)2O(CH2)2CO}-[Pen]NT[Trp(7-Me)]K(Ac)[Pen][AEF][2Nal][Thp]EN[3Pal][Sar]-NH2; disulfide 1-6)
IC50 [1]: 5.7 pM | EPSA [2]: 171 A^2

CC(=O)N(C)CCCC[C@@H]1NC(=O)[C@H](Cc2c[nH]c3c(C)cccc23)NC(=O)[C@H]([C@@H](C)O)NC(=O)[C@H](CC(=O)N(C)C)NC(=O)[C@@H](NC(=O)C(F)(F)F)C(C)(C)SSC(C)(C)[C@@H](C(=O)N[C@@H](Cc2ccc(OCCN(C)C)cc2)C(=O)N[C@@H](Cc2ccc3ccccc3c2)C(=O)NC2(C(=O)N[C@@H](CCC(=O)O)C(=O)N[C@@H](CC(N)=O)C(=O)N[C@@H](Cc3cccnc3)C(=O)N(C)CC(=O)N(C)C)CCOCC2)NC1=O [compound 104, CF3CO-Pen(3)-N(N(Me)2)-T-7MeW-K(NMeAc)-Pen(3)-AEF(N(Me)2)-2Nal-THP-E-N-3Pya-Sar-CON(Me)2] (Tfa-[Pen]D(NMe2)T[Trp(7-Me)][Lys(Me)](Ac)[Pen]Y(Me2NCH2CH2)[2Nal][Thp]EN[3Pal][Sar]-NMe2; disulfide 1-6)
IC50 [1]: 3.2 pM | EPSA [2]: 150 A^2

CC(=O)NCCCC[C@@H]1NC(=O)[C@H](Cc2c[nH]c3ccccc23)NC(=O)[C@H]([C@@H](C)O)NC(=O)[C@H](CC(N)=O)NC(=O)[C@@H](NC(=O)[C@@H](CCCC[N+](C)(C)C)NC(C)=O)CCSC[C@@](C)(C(=O)N[C@@H](Cc2ccc(OCCCCC[N+](C)(C)C)cc2)C(=O)N[C@@H](Cc2ccc3ccccc3c2)C(=O)NC2(C(=O)N[C@@H](CCC(=O)O)C(=O)N[C@@H](CC(N)=O)C(=O)N[C@@H](Cc3cccnc3)C(=O)N(C)CC(N)=O)CCOCC2)NC1=O [compound 567, MeCO-k(Me)3-Abu(1)-N-T-W-K(Ac)-aMeC(1)-TMAPF-2Nal-THP-E-N-3Pya-Sar-CONH2] (Ac-[dLys(Me3)][Abu(4-yl)]NTWK(Ac)[αMeC]Y(X3)[2Nal][Thp]EN[3Pal][Sar]-NH2; thioether 2-7)
EPSA [2]: 172 A^2 | IC50 (IL-23R): 3100 pM
